{
  "source": "paper PMC7070167",
  "about": "“Cell‐permeable high‐affinity tracers for Gq proteins provide structural insights, reveal distinct binding kinetics and identify small molecule inhibitors” (British Journal of Pharmacology, 2020)",
  "target": "T1, Gq proteins (Homo sapiens, UniProt P50148)",
  "T1 construct": "Native cell membrane preparations from rat brain cortex and human blood platelets; host or cells: human platelets (intact suspension or membrane preparation)",
  "T1 sequence (P50148 1-359)": "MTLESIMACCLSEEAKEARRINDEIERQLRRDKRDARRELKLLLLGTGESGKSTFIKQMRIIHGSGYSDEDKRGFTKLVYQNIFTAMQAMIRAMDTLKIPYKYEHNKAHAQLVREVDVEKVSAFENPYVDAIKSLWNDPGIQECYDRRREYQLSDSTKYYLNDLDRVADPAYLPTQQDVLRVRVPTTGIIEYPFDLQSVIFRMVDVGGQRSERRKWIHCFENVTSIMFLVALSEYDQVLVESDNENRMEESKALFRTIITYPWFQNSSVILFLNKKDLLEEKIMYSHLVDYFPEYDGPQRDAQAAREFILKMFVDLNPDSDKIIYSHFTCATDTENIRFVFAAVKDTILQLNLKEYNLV",
  "assay": "High-throughput (96-well) competition binding assay at human platelet membranes",
  "conditions": "for Ki: versus [³H]PSB-15900 (5 nM), high-throughput 96-well format, 37°C",
  "procedure": "The experiments were performed in 50‐mM Tris–HCl buffer, pH 7.4. The final assay volume of 200 μl contained 5 μl of test compound in DMSO, 50 μl of [^3H]PSB‐15900 or [^3H]PSB‐16254, respectively, in buffer, 5 nM of final concentration, and 100 μl of human platelet membrane preparation (50 μg of protein) or intact human platelets (7.5 × 10^6 cells/vial). Non‐specific binding was determined in the presence of 5‐μM FR. The incubation was started by the addition of membrane preparation and was performed at 37°C for 1 hr with gentle shaking. It was terminated by rapid vacuum filtration through GF/C glass‐fibre filters using a Brandel 24‐well harvester. The filters were rinsed three times with approximately 3 ml each of ice‐cold Tris–HCl buffer, 50 mM, pH 7.4 containing 0.1% Tween 20 and 0.1% BSA, to separate bound from free radioligand. The filters were punched out and transferred to scintillation vials. Luma Safe® scintillation cocktail (2.5 ml) was added, and after 6 hr of incubation, the samples were counted for 1 min each, using a liquid scintillation counter (counting efficiency 53%). Experiments in the presence of GTP were additionally performed after preincubation of the membrane preparation with GTP for 1 hr. pIC50 and pKi values were calculated using equations for one‐site competition as implemented in GraphPad Prism 6.01 (GraphPad Inc., La Jolla, CA, USA).\nCompetition binding experiments were performed as described above (for incubation conditions, washing steps, and buffers) but on 96‐well plates using a Brandel 96‐well plate harvester with GF/C Unifilters (Perkin‐Elmer). After harvesting, 50 μl per cavity of Ultima Gold scintillation cocktail (Perkin‐Elmer) was added, and counting was performed as described above.",
  "note": "Read-outs that look alike come from different tables or passages of the source. *1 amine or outer side, *2 acyl side, *3 side chain or, on linkers, in order; H or OH if unused. Where a SMILES comes first, the peptide text is derived from it. Bridges are numbered along the chain shown (N, C = ends). [ ]: non-standard residue; d: D form. The star is where a group is joined. Leu(3R-OH,Nα-propionyl) = CCC(=O)N[C@H](C(=O)*)[C@H](O)C(C)C; X1 = CC(C)[C@@H](O[*:3])[C@H](N[*:1])C(=O)[*:2]; NMeT = CN[C@H](C(=O)O)[C@@H](C)O; dPhLac = O=C(O)[C@H](O)Cc1ccccc1; NMeA = CN[C@@H](C)C(=O)O; NMeDha = C=C(NC)C(=O)O",
  "data": [
    {"smiles": "C=C1C(=O)N[C@@H](C)C(=O)N(C)[C@@H](C)C(=O)N[C@@H]([C@H](OC(=O)[C@@H](NC(=O)CC)[C@H](O)C(C)C)C(C)C)C(=O)N(C)[C@@H]([C@@H](C)OC)C(=O)O[C@H](C(C)C)[C@H](NC(C)=O)C(=O)O[C@H](Cc2ccccc2)C(=O)N1C", "note": "[FR, FR900359] (Ac-[X1][dPhLac][NMeDha]A[NMeA][X1](Leu(3R-OH,Nα-propionyl))[NMeT](Me); ester 1-C)", "values": [
      {"measurement": "inhibition of radioligand binding (positive control)", "setting": "1 μM, 96‐well plates", "result": "complete inhibition"},
      {"measurement": "Ki", "setting": "read-out: Ki", "result": "6.56 ± 1.92", "unit": "nM"},
      {"measurement": "Ki", "setting": "read-out: pKi (converted)", "result": 6.46, "unit": "nM"}
    ]}
  ]
}
